Reference: article PMC12693701, “Glucosinolate-Derived Metabolites from Barbarea vulgaris (Brassicaceae): Evaluation of Antimicrobial, Antioxidant, and Anti-Inflammatory Potentials” (Molecules, 2025)
In brackets after ≈: the same amount, converted by molar mass.

Legend:
[1] = tested on: S. aureus ATCC 25923; assay: Inhibition of biofilm formation (crystal violet); assay type: cell-based, Staphylococcus aureus; conditions: for BIC50: biofilm coverage reduced by 50%; for BIC90: biofilm coverage reduced by 90%
Protocol: (§1) The procedure involved preparing 96-well microtiter plates (Sarstedt, Nümbrecht, Germany) by adding 100 μL of Mueller-Hinton nutrient broth to each well. A 10 μL aliquot of bacterial suspension (adjusted to 1.0 McFarland for Gram-positive bacteria and 0.5 McFarland for Gram-negative bacteria) was added to the wells. The plates were then incubated at 37 °C for 48 h to allow biofilm formation. After incubation, the wells were washed twice with 200 μL of sterile 0.85% saline to remove non-adherent and weakly adherent cells. Biofilms formed by the adherent bacteria were fixed with 100 μL of methanol until fully evaporated. The biofilms were then stained using 0.1% (w/v) crystal violet (Fluka Chemie AG, Buchs, Switzerland) and left at room temperature for 20 min. After staining, excess dye was washed off with deionized water, followed by 96% ethanol. Controls included wells containing only nutrient broth to check for sterility and nonspecific binding. Background absorbance from the sterile medium, fixative, and dye was subtracted from the OD readings of the test samples. All experiments were performed in triplicate.
(§2) To assess the inhibition of biofilm formation, 96-well microtiter plates (Sarstedt, Nümbrecht, Germany) were prepared by dispensing 100 μL of Mueller-Hinton broth into each well. From stock solutions of tested compounds (at 10 mg/mL), 100 μL was added to the first row of the plate, followed by twofold serial dilutions (from 5 to 0.039 mg/mL) using a multichannel pipette (Eppendorf AG, Hamburg, Germany). Subsequently, 10 μL of fresh bacterial suspension (adjusted to 0.5 McFarland for Gram-negative and 1.0 McFarland for Gram-positive bacteria) was added to each well. The plates were incubated at 37 °C for 48 h. After incubation, the contents of the wells were carefully removed by tapping, and the remainder of the experiment was conducted following the procedure described above.
(§3) Controls consisted of wells containing only broth or broth with the tested compounds to assess sterility and nonspecific binding. Background absorbance was subtracted from test readings as described earlier. All experiments were performed in triplicate, and tetracycline (Sigma-Aldrich, St. Louis, MO, USA), dissolved in nutrient broth, was used as a reference compound.

[2] = tested on: B. subtilis ATCC 6633; assay: Inhibition of biofilm formation (crystal violet); assay type: cell-based, Bacillus subtilis; conditions: for BIC50: biofilm coverage reduced by 50%; for BIC90: biofilm coverage reduced by 90%
Protocol: as §1, §2, §3

[3] = tested on: S. enterica; assay: Inhibition of biofilm formation (crystal violet); assay type: cell-based, Salmonella enterica; conditions: for BIC50: biofilm coverage reduced by 50%; for BIC90: biofilm coverage reduced by 90%
Protocol: as §1, §2, §3

[4] = tested on: tested bacterial strains; assay: Microdilution MIC, summary over tested bacterial strains; assay type: cell-based; conditions: for MIC values, range over bacterial strains: all tested bacteria; for MIC: read-out: MIC against E. coli ATCC 25922 and S. aureus ATCC 25923 (abstract)
Protocol: The antimicrobial activity was evaluated against 15 microorganisms. This included 11 bacterial strains: four standard strains (Staphylococcus aureus ATCC 25923, Bacillus subtilis ATCC 6633, Bacillus pumilus NCTC 8241, and Escherichia coli ATCC 25922) and six clinical or environmental isolates (Staphylococcus aureus, Escherichia coli, Bacillus cereus, Proteus mirabilis, Salmonella enterica, and Klebsiella pneumoniae). One probiotic strain, Bifidobacterium animalis subsp. lactis was tested. In addition, four fungal strains, Candida albicans ATCC 10231, Trichoderma viride ATCC 13233, Aspergillus flavus ATCC 9170, and Fusarium solani ATCC 11712 were tested. The bacterial strains were kept in glycerol stock at −80 °C and the fungal strains in paraffin oil stock at 4 °C.
Bacterial and yeast suspensions were prepared using the direct colony method, as previously described by Andrews. The turbidity of the initial suspensions was adjusted to match the 0.5 McFarland standard using a densitometer (Biosan, Riga, Latvia), corresponding to approximately 10^8 colony-forming units (CFU)/mL for bacterial cells and 10^6 CFU/mL for yeast cells. Subsequently, 1:100 dilutions of the initial suspensions were prepared in sterile 0.85% saline. Fungal spore suspensions were obtained by gently harvesting spores from agar slopes containing mature mycelial growth. The collected spore suspensions were then diluted 1:1000 in sterile 0.85% saline prior to use.
Antimicrobial activity was evaluated by determining the minimum inhibitory concentration (MIC) and minimum microbicidal concentration (MMC) using the microdilution plate method with resazurin as an indicator [28]. In the 96-well plates, 100 μL of Mueller–Hinton broth (Torlak, Belgrade, Serbia) for bacterial testing and Sabouraud broth (Torlak, Belgrade, Serbia) for fungal testing were dispensed into each well. The compounds under investigation were initially dissolved in a 10% dimethyl sulfoxide (DMSO) solution, followed by dilution in sterile distilled water, resulting in a working compound solution containing 1% DMSO. A 100 μL aliquot of the stock solution of the tested compound was added to the first row, and twofold serial dilutions were then carried out using a multichannel pipette. The resulting concentration range was from 5 to 0.039 mg/mL. The inoculated microtiter plates were incubated at 37 °C for 24 h for bacteria, at 28 °C for 48 h for yeasts, and at 28 °C for 72 h for molds.
Each test also included growth control and sterility control. All tests were conducted in duplicate. MIC was defined as the lowest concentration of tested compounds that prevented resazurin color change from blue to pink. For molds, MIC values of the tested compound were determined as the lowest concentration that inhibited visible mycelia growth. MMC was determined by inoculation of the nutrient agar medium by plating […] of samples from wells, where no indicator color change was recorded. At the end of the incubation period, the lowest concentration with no growth (no colony) was defined as MMC.

[5] = tested on: K. pneumoniae; assay: Inhibition of biofilm formation (crystal violet); assay type: cell-based, Klebsiella pneumoniae; conditions: for BIC50: biofilm coverage reduced by 50%; for BIC90: biofilm coverage reduced by 90%
Protocol: as §1, §2, §3

Structure (SMILES) | BIC50 [1] [µg/mL] | BIC90 [1] [µg/mL] | BIC50 [2] [µg/mL] | BIC90 [2] [µg/mL] | BIC50 [3] [µg/mL] | BIC90 [3] [µg/mL] | MIC values, range over bacterial strains [4] [µg/mL] | BIC50 [5] [µg/mL] | BIC90 [5] [µg/mL] | MIC [4] [µg/mL] | antibacterial activity (in words) ([4]; tested concentrations 5 to 0.039 mg/mL)
S=C1NCC(c2ccccc2)O1 (racemic) [Compound 4, rac-5-Phenyl-1,3-oxazolidine-2-thione] | 1500 | >5000 | 2700 | >5000 | 1000 | 4470 | 1250 to 5000 | 3978 | >5000 |  | 
CSC(=S)NCCc1ccccc1 [Compound 1, Methyl phenethylcarbamodithioate] |  |  |  |  |  |  | 1250 to 5000 |  |  |  | 
CSC(=S)NCCc1ccc(O)cc1 [Compound 2, methyl-4-hydroxyphenylethyl dithiocarbamate] | 220 | 2120 | 290 | 1250 | 1100 | 3200 |  | 580 | 3600 | 312 to 1250 (≈ 1.37 to 5.5 mM) | 
O=C(O)C1CSC(=S)N1 (stereo not drawn) [Compound 3, 2-Thioxothiazolidine-4-carboxylic Acid] | 2500 | >5000 | 1190 | 2500 | 2400 | >5000 |  | 1262 | >5000 |  | 
O=C1NCC(c2ccccc2)S1 (stereo not drawn) [Compound 6, 5-phenyl-1,3-thiazolidin-2-one] |  |  |  |  |  |  |  |  |  |  | no detectable antibacterial activity
O=C1NCC(c2ccccc2)O1 (stereo not drawn) [Compound 7, 5-Phenyl-1,3-oxazolidin-2-one] | >5000 | >5000 | >5000 | >5000 | 1254 | >5000 |  | 4400 | >5000 |  | 
Oc1ccc(CCN=C=S)cc1 [Compound 8, 2-(4-hydroxyphenyl)ethyl isothiocyanate] | 868 | 1360 | 1100 | 2300 | 1547 | >5000 |  | 570 | 2000 | 312 to 1250 (≈ 1.74 to 6.97 mM) | 
